Assay results: ChEMBL document CHEMBL1201862, “PubChem BioAssay data set” (2004)
Active and inactive are the calls of the source.

Legend:
Bcl-2-like protein 1 = Bcl-2-like protein 1 (Homo sapiens, UniProt Q07817); test: BCL-XL inhibitors, dose response, selectivity assay for MCL1 inhibitor project, biochemical, fluorescence polarization, 1536-well (AID 2218)
[1] = THP-1 cell cytotoxicity, dose response, cytotoxicity control for Vif-APOBEC3G degradation inhibitor project, THP-1 cells (AID 1117359); format: functional; conditions: Human immunodeficiency virus 1, THP-1
[2] = target: Induced myeloid leukemia cell differentiation protein Mcl-1 (Homo sapiens, UniProt Q07820); test: MCL1-BIM BH3 interaction inhibitors, dose response, biochemical, fluorescence polarization, BIM-BH3 peptide, 1536-well (AID 2217)
Bcl-2-like protein 10 = Bcl-2-like protein 10 (Homo sapiens, UniProt Q9HD36); test: displacers of TR3 peptide from Bcl-B, primary screen, selectivity assay for Bfl-1 inhibitor project, biochemical, fluorescence polarization, FITC-TR3 peptide (AID 748);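 also: fluorescence polarization from a fluorescein-labelled TR3 peptide binding purified Bcl-B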
Estrogen receptor beta = Estrogen receptor beta (Homo sapiens, UniProt Q92731); test: ERβ–SRC-3 coactivator interaction inhibitors, confirmation, orthogonal assay, biochemical, ELISA, streptavidin-HRP readout (AID 1060)
Protein Tat = Protein Tat (Human immunodeficiency virus type 1 group M subtype B (isolate HXB2)(HIV-1), UniProt P04608); format: functional;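 also: tat binding to TAR RNA read out by fluorescence polarization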
[3] = target: T1, E3 ubiquitin-protein ligase XIAP (Homo sapiens, UniProt P98170); test: XIAP antagonists, biochemical, IAP family, fluorescence polarization (AID 1018); format: functional
[4] = target: T1, E3 ubiquitin-protein ligase XIAP; test: Counter Screen using XIAP-Bir3 for Chemical Antagonists of Bir1/2 domains of IAP-family anti-apoptotic proteins. [Related pubchem assays (depositor defined):AID1018, AID1449, AID1514, AID1638, AID1749, AID1750, AID488957, AID488963]
[5] = target: T2, Alkaline phosphatase, tissue-nonspecific isozyme (Homo sapiens, UniProt P05186); test: human TNAP enzyme inhibitors, SAR follow-up, biochemical, luminescent, dose response (AID 1056)
T2 sequence (P05186 whole entry): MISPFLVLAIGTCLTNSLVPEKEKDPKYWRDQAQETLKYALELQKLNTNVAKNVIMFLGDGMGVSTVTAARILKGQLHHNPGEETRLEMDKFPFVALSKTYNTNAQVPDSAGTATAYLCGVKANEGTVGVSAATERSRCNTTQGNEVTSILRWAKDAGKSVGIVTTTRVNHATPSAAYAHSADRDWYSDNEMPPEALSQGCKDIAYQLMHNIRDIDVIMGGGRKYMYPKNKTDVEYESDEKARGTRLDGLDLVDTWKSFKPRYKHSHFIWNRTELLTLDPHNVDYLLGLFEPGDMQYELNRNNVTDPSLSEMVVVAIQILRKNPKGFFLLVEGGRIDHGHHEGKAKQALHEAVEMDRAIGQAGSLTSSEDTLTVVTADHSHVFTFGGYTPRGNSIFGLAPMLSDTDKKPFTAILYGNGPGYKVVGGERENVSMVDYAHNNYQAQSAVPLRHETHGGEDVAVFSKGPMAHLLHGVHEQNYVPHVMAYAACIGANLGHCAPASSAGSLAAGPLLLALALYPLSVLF

[6] = target: Glyceraldehyde-3-phosphate dehydrogenase (Homo sapiens, UniProt P04406)
HEK293 [7] = test: cells; format: functional, cell-based; conditions: Homo sapiens
Tumor necrosis factor = Tumor necrosis factor (Homo sapiens, UniProt P01375); test: TNFa-triggered NF-kB activation inhibitors, SAR follow-up, cell-based, revised (AID 2337); format: functional
[8] = target: T3, Microphthalmia-associated transcription factor (Homo sapiens, UniProt O75030); test: TRPM1 promoter luciferase signal decrease, dose response, MITF inhibitor project, cell-based, SK-MEL-5, cherry-picked, set 3 (AID 493073); format: functional
T3 sequence (O75030 whole entry): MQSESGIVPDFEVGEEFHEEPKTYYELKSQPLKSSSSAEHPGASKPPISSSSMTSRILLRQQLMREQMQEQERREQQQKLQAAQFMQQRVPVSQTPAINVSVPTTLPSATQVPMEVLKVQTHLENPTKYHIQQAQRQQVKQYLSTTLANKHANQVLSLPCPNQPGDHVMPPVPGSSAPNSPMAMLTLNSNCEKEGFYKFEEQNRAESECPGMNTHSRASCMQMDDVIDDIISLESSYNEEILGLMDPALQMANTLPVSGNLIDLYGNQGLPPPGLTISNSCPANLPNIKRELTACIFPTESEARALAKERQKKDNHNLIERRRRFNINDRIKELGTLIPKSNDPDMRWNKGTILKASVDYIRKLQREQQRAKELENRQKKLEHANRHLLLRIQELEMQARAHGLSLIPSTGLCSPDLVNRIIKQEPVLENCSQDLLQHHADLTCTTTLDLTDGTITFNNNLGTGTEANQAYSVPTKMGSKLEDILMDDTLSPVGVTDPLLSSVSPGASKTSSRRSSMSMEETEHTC

HEK293 [9] = test: NOD1 signaling inhibitors, primary screen, cell-based, luminescence, uHTS (AID 1578); format: functional; conditions: Homo sapiens
HEK293 [10] = test: NOD2 signaling inhibitors in MDP-stimulated cells, cell-based, uHTS, luminescence (AID 2001); format: functional; conditions: Homo sapiens
HEK293 [11] = test: cells; conditions: Homo sapiens
HEK293 [12] = test: cells; format: functional, cell-based; conditions: Homo sapiens; remark: listed apart in the source
[13] = target: Nucleotide-binding oligomerization domain-containing protein 1 (Homo sapiens, UniProt Q9Y239); test: NOD1 signaling inhibitors, SAR follow-up, revised (AID 2333); format: functional
Cytochrome P450 2D6 = Cytochrome P450 2D6 (Homo sapiens, UniProt P10635);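 also: CYP2D6 member of a cytochrome P450 panel assay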
Cytochrome P450 3A4 = Cytochrome P450 3A4 (Homo sapiens, UniProt P08684);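 also: CYP3A4 tested as one member of a cytochrome P450 panel screen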
Cytochrome P450 2C19 = Cytochrome P450 2C19 (Homo sapiens, UniProt P33261); test: Cytochrome panel assay with activity outcomes. Panel member name: p450-cyp2c19 Compounds with AC50 equal or less than 10 uM are considered active; format: functional; conditions: read-out: AC50
Hexokinase = Hexokinase (Trypanosoma brucei, UniProt Q38C41); test: Confirmation assay for inhibitors of Trypanosoma brucei hexokinase 1-Analogue-first series. [Related pubchem assays (depositor defined):AID1430, AID1632, AID2516, AID2560, AID2579, AID2600, AID449725, AID492951]; format: functional
[14] = target: T4, Sphingosine 1-phosphate receptor 4 (Homo sapiens, UniProt O95977); test: Fluorescence dose response cell-based high throughput screening assay for agonists of the Sphingosine 1-Phosphate Receptor 4 (S1P4). [Related pubchem assays: 1509 (Primary screen.), 1523 (Confirmation screen in triplicates.)]; format: functional
T4 sequence (O95977 whole entry): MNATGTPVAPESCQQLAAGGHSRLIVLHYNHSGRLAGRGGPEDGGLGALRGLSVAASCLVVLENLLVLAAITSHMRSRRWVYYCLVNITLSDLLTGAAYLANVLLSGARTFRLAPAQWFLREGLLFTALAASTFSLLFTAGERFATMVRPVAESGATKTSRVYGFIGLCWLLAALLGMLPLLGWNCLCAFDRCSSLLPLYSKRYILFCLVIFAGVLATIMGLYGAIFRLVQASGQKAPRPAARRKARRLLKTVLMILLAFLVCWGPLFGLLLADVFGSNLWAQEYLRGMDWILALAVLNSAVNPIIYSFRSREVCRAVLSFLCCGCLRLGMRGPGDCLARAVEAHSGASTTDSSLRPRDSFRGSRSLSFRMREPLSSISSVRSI

[15] = target: Sphingosine 1-phosphate receptor 1 (Homo sapiens, UniProt P21453); test: Fluorescence-based counterscreen assay for S1P4 agonists: Cell-based dose response high throughput screening assay to identify agonists of the Sphingosine 1-Phosphate Receptor 1 (S1P1). [Related pubchem assays (depositor defined):AID1509, AID1523, AID1801, AID463107, AID463118, AID463119, AID463122, AID463123, AID463129, AID463225, AID504400, AID504460]; format: functional
Coagulation factor XII = target: T5, Coagulation factor XII (Homo sapiens, UniProt P00748); test: FXIIa inhibitor potency, concentration-response, biochemical (AID 716); format: functional
T5 sequence (P00748 whole entry): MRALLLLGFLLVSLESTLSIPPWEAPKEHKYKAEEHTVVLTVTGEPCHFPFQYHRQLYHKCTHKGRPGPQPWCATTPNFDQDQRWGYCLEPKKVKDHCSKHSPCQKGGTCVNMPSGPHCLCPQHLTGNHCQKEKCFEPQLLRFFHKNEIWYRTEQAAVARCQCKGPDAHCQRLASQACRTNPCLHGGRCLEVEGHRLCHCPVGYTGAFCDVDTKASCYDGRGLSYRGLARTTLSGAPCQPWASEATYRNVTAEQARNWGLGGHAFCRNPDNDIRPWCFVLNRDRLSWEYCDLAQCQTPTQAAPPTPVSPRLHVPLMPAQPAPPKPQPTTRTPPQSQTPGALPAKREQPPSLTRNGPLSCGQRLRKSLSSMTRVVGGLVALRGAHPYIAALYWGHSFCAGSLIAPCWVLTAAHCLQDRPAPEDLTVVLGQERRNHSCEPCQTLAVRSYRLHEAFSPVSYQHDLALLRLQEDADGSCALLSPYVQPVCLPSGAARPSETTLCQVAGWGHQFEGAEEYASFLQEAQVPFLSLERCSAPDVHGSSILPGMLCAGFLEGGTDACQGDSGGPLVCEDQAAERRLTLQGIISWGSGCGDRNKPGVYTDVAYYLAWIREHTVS

[16] = target: T4, Sphingosine 1-phosphate receptor 4; test: Late-stage fluorescence dose response cell-based assay to identify agonists of the Sphingosine 1-Phosphate Receptor 4 (S1P4): purchased compounds EC50. [Related pubchem assays (depositor defined):AID1509, AID1523, AID1563, AID1686, AID1701, AID1801]; format: functional
Genome polyprotein = Genome polyprotein (dengue virus type 2, UniProt P29990); test: Dengue-2 NS5 methyltransferase inhibitors, primary screen, biochemical, confirmation dose response (AID 588689); format: functional

T1 sequence (P98170 whole entry): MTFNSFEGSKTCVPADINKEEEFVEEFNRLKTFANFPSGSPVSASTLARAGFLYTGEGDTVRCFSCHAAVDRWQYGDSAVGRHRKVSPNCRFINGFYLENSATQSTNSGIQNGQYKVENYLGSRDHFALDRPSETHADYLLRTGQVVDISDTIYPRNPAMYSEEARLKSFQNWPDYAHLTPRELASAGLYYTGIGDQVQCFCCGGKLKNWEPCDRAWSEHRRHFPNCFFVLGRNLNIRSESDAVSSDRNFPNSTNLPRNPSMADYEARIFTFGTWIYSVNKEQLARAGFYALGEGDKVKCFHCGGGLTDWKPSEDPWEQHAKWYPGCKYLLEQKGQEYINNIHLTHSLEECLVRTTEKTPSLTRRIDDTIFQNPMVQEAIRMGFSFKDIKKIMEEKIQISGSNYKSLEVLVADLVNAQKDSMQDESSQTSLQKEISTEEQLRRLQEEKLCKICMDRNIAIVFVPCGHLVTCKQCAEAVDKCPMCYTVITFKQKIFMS
Chain of Nucleotide-binding oligomerization domain-containing protein 1 (Q9Y239 whole entry, the tested form may be a part): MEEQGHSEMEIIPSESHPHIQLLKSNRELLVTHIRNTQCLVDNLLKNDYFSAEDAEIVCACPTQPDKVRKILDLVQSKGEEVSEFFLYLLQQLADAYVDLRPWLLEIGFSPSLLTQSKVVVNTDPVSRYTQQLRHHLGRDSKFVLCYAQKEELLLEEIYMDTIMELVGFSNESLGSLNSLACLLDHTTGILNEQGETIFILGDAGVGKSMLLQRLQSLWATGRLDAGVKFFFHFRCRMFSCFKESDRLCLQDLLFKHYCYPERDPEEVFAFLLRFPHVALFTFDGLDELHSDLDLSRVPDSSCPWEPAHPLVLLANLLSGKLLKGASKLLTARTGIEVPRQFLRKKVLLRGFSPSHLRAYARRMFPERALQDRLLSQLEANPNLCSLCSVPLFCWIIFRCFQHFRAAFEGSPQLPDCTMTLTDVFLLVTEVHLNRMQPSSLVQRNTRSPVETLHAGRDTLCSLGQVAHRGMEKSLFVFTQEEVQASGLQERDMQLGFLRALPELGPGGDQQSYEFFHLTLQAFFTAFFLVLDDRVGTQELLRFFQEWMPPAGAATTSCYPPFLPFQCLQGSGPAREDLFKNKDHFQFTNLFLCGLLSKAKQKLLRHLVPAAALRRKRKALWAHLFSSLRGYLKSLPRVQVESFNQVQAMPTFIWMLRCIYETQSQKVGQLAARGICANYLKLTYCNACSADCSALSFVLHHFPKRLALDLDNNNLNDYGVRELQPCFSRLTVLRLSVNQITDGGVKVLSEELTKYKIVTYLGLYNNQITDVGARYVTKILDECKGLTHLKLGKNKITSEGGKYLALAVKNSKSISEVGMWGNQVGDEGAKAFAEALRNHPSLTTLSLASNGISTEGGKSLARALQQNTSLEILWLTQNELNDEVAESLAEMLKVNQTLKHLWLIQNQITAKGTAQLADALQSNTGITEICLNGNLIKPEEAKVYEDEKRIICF
Chain of Sphingosine 1-phosphate receptor 1 (P21453 whole entry): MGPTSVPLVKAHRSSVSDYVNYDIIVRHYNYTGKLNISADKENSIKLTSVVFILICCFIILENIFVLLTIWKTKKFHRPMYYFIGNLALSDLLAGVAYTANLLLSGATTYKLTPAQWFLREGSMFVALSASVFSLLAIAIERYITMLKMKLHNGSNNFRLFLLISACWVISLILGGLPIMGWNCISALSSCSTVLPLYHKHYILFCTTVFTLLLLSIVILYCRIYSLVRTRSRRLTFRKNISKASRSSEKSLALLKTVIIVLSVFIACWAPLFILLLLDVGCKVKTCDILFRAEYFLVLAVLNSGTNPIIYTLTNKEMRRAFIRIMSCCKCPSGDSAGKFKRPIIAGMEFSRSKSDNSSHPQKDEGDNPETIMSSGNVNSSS
Chain of Glyceraldehyde-3-phosphate dehydrogenase (P04406 whole entry): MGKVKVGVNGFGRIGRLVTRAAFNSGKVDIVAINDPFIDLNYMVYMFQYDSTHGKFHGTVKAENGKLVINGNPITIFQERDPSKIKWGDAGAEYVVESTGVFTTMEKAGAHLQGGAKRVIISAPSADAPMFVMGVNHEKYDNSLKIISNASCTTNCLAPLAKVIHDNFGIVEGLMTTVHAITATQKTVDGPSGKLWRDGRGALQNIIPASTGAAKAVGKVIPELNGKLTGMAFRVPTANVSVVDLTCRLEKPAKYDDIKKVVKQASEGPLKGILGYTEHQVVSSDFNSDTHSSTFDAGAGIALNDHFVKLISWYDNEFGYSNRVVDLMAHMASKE
Chain of Tumor necrosis factor (P01375 whole entry): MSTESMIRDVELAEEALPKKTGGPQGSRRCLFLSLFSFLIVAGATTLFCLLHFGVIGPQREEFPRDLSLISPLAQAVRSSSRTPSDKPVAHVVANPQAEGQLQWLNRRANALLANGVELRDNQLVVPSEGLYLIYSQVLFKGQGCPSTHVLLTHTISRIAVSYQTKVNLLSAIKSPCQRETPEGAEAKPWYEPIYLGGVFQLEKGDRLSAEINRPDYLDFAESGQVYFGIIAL
Chain of Hexokinase (Q38C41 whole entry): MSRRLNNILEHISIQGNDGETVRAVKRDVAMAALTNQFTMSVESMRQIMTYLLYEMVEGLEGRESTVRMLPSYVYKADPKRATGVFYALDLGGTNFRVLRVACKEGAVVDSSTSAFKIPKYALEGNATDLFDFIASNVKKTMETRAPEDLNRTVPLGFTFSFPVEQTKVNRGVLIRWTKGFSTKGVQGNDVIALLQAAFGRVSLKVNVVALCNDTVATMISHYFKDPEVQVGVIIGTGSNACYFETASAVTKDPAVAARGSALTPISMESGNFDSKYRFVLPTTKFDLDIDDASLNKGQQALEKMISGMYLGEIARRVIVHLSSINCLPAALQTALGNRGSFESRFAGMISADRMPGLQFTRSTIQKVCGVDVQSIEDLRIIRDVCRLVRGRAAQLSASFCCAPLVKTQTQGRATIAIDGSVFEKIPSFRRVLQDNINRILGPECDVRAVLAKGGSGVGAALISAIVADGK
Chain of Induced myeloid leukemia cell differentiation protein Mcl-1 (Q07820 whole entry): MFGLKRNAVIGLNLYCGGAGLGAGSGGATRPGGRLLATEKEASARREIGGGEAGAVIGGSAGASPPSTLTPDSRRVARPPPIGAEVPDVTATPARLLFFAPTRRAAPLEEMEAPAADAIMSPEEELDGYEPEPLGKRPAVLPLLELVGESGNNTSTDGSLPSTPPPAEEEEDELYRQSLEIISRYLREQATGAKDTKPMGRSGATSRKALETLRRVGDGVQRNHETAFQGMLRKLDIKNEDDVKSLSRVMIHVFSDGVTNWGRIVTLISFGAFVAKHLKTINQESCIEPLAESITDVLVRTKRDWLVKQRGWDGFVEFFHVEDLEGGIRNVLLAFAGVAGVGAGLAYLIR
Chain of Cytochrome P450 2D6 (P10635 whole entry): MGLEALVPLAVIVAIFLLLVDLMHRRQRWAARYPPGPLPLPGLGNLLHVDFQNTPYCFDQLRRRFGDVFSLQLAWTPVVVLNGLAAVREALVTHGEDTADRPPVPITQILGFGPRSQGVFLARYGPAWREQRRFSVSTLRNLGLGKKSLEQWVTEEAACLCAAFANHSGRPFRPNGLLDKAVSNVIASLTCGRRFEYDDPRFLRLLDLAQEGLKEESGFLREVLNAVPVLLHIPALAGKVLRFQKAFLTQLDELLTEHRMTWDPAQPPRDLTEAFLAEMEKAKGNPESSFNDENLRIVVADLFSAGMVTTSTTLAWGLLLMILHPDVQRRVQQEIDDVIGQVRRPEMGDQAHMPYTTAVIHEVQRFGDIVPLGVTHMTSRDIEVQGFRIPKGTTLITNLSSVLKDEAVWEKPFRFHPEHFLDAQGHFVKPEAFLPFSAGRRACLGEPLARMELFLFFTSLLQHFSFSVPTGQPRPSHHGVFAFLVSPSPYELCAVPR
Chain of Cytochrome P450 2C19 (P33261 whole entry): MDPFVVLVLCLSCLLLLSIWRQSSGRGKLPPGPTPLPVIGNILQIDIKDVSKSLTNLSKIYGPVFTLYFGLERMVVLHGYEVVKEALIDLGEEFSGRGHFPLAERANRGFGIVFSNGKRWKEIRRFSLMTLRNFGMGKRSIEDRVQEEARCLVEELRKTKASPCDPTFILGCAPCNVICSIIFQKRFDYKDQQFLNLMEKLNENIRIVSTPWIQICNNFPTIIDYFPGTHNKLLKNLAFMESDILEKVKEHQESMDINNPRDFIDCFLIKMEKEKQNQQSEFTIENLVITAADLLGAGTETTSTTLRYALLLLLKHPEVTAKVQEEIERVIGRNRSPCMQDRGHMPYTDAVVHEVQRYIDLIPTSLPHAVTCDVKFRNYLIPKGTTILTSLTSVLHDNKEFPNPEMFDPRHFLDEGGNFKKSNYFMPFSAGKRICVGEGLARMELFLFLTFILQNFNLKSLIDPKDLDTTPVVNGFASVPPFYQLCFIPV
Chain of Bcl-2-like protein 10 (Q9HD36 whole entry): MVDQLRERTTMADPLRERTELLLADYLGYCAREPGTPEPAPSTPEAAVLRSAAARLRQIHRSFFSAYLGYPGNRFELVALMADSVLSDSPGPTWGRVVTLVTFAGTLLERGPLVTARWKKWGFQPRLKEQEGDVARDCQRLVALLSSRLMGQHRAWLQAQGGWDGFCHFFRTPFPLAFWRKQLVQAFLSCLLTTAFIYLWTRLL
Chain of Protein Tat (P04608 whole entry): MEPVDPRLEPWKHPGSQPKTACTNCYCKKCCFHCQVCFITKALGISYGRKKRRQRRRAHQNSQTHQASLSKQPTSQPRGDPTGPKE
Chain of Bcl-2-like protein 1 (Q07817 whole entry): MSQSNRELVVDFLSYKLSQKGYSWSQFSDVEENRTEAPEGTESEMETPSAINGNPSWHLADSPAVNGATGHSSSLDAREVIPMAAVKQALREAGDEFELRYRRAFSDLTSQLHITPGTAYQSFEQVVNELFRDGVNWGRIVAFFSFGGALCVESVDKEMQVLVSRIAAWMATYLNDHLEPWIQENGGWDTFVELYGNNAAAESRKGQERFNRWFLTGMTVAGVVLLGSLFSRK

## CC(=N)/C(C#N)=C(/O)CSc1nnc(NC(C)C)s1
Bcl-2-like protein 1
  IC50: > 109 µM (not active)
[1]
  CC50: > 40 µM (active)
[2]
  IC50: 16.3 µM (not active)
Bcl-2-like protein 10
  IC50: 23.7 µM (active)
Estrogen receptor beta
  IC50: < 0.023 µM (not active)
Protein Tat
  IC50: > 100 µM (active)

## COc1ccc(-n2nc(C(=O)N3CCN(Cc4ccc5c(c4)OCO5)CC3)c3ccccc3c2=O)cc1
[3]
  IC50: > 100 µM (not active)
[4]
  IC50: > 100 µM (inactive)

## COc1ccc(OC)c(S(=O)(=O)Nc2ccc3ccccc3c2)c1
[5]
  IC50: > 10 µM (inactive)
[6]
  IC50: > 10 µM (inconclusive)

## O=C(c1ccc(S(=O)(=O)Cc2ccccc2Cl)c([N+](=O)[O-])c1)N1CCN(c2ccccn2)CC1
HEK293 [7]
  IC50: > 20 µM (inactive)
Tumor necrosis factor
  IC50: 4.53 µM (active)
[8]
  AC50: 9.49 µM (active)
HEK293 [9]
  EC50: 11.8 µM (active)
HEK293 [10]
  IC50: 3.63 µM (active)
HEK293 [11]
  IC50: 16.3 µM (active)
HEK293 [12]
  IC50: 2.81 µM (active)
[13]
  IC50: 4.24 µM (active)

## COC(=O)N1CCC2(CC1)CCN(c1ccccn1)CC2
Cytochrome P450 2D6
  AC50: 10 µM (inconclusive)
Cytochrome P450 3A4
  AC50: inconclusive
Cytochrome P450 2C19
  AC50: 10 µM (inconclusive)

## Cc1cc(=O)n(-c2ccccc2)s1
Hexokinase
  IC50: > 25 µM (inactive)

## O=S(=O)(Nc1cnc2ccccc2c1)c1cc(Cl)cc(Cl)c1O
[5]
  IC50: 69.6 µM (active)
[6]
  IC50: > 100 µM (not active)

## Cc1cc(-n2c(=O)c(C#N)cc3c(=O)n4ccccc4nc32)no1
[14]
  EC50: 4.43 µM (active)
[15]
  EC50: 10.1 µM (inactive)

## O=C(NCC1CCCO1)c1ccc(COCC(F)(F)C(F)F)cc1 (centres undefined)
Coagulation factor XII
  IC50: > 50 µM (inactive)

## Cc1ccc(OCc2cn3cc(Cl)ccc3n2)c([N+](=O)[O-])n1
[16]
  EC50: > 50 µM (inactive)

## O=C(Nc1ccc(S(=O)(=O)O)cc1)c1ccc(CN2CCc3ccccc3C2)cc1
Tumor necrosis factor
  IC50: > 20 µM (inactive)
HEK293 [11]
  IC50: > 20 µM (inactive)
[13]
  IC50: > 20 µM (inactive)

## O=C(Nc1ccc(Cl)c(Cl)c1)N1CC=CCC1
Coagulation factor XII
  IC50: > 50 µM (inactive)

## CCc1c(C)sc(NC(=O)OC)c1C(=O)N1CCCCC1
[3]
  IC50: > 25 µM (not active)
[4]
  IC50: 54.6 µM (active)
Genome polyprotein
  IC50: > 100 µM (active)

## CCCc1ccc(C(=O)Nc2cc(Cl)ccc2C(=O)O)cc1
Hexokinase
  IC50: 4.54 µM (active)

## Cc1ccc(OC(C)C(=O)Nc2ccc(Cl)cc2Cl)c([N+](=O)[O-])n1 (centres undefined)
[16]
  EC50: > 50 µM (inactive)

## N#Cc1c(-n2cccc2C=O)sc2c1CCCC2
[14]
  EC50: 32.2 µM (not active)
[15]
  EC50: > 49.8 µM (inactive)
